This series is described as follows: Solubility of saccharides in water at 37° C. As to conditions: for Used Saccharide (Solubility at 37° C. (weight %)): value in parentheses under the saccharide name; for Solubility in water at 37° C.: unit from the definition, the table prints none. Format: physicochemical. As for the experimental part: The solubility can be determined by a method well-known to those skilled in the art. For example, solubility (% by weight) can be determined as follows. A solute is dissolved gradually in water of weight W1 at 37° C. When the largest amount of the solute is dissolved in the water, the weight of the solution is W2. The weight of the dissolved solute W3 (=W2−W1) is divided by the weight of the solution W2, and multiplied by 100 (i.e., converted to a percentage).

For `OC[C@@H](O)[C@@H](O)CO` [Erythritol], the “Used Saccharide (Solubility at 37° C. (weight %))” value is “(44) weight %” and the “Solubility in water at 37° C.” value was found to be 44 % by weight.
The corresponding values for `O=C(CO)[C@@H](O)[C@H](O)[C@H](O)CO` [Fructose] are “(84) weight %” and 84 % by weight.
The matching figures for `OC[C@@H](O)[C@@H](O[C@@H]1O[C@H](CO)[C@H](O)[C@H](O)[C@H]1O)[C@H](O)[C@@H](O)CO` [Lactitol]: “(70) weight %” and 70 % by weight.
Regarding `OC[C@@H](O)[C@@H](O[C@H]1O[C@H](CO)[C@@H](O)[C@H](O)[C@H]1O)[C@H](O)[C@@H](O)CO` [Maltitol], the “Used Saccharide (Solubility at 37° C. (weight %))” value was “(63) weight %” and the “Solubility in water at 37° C.” value was 63 % by weight.
As to `OC[C@@H](O)[C@@H](O)[C@H](O)[C@H](O)CO` [Mannitol], the “Used Saccharide (Solubility at 37° C. (weight %))” value is “(23) weight %” and the “Solubility in water at 37° C.” value turned out to be 23 % by weight.
The matching figures for `OC[C@H]1O[C@H](OC[C@H]2OC(O)(CO)[C@@H](O)[C@@H]2O)[C@H](O)[C@@H](O)[C@@H]1O` (stereo partly shown) [Palatinose]: “(40) weight %” and 40 % by weight.
The corresponding values for `OC[C@@H](O)[C@@H](O)[C@H](O)[C@@H](O)CO` [Sorbitol] are “(74) weight %” and 74 % by weight.
The matching figures for `OC[C@H]1O[C@@](CO)(O[C@H]2O[C@H](CO)[C@@H](O)[C@H](O)[C@H]2O)[C@@H](O)[C@@H]1O` [Sucrose]: “(68) weight %” and 68 % by weight.
On to `OC[C@H]1O[C@H](O[C@H]2O[C@H](CO)[C@@H](O)[C@H](O)[C@H]2O)[C@H](O)[C@@H](O)[C@@H]1O` [Trehalose], for which the “Used Saccharide (Solubility at 37° C. (weight %))” value was “(52) weight %” and the “Solubility in water at 37° C.” value is 52 % by weight.
As for `OC[C@@H](O)[C@H](O)[C@@H](O)CO` [Xylitol], the “Used Saccharide (Solubility at 37° C. (weight %))” value is “(72) weight %” and the “Solubility in water at 37° C.” value was 72 % by weight.
The corresponding values for Palatinit are “(37) weight %” and 37 % by weight.
